Patent publication US20090306392A1, “GSM INTERMEDIATES” (priority 2007, published 2009)

Test system: γ-secretase
Assay: Screening for γ-secretase-modulating activity in SKNBE2 cells carrying APP 695-wild type
Format: cell-based
Conditions: SKNBE2 cells carrying the APP 695-wild type; read-out: EC 50 WTAPP

EC50 [µM]	Compound
0.064	CC(C)CC(C(=O)O)c1cc(NC2CCC(C(C)(C)C)CC2)cc(-c2ccc(C(F)(F)F)cc2)c1 (stereo not drawn) [Example 33, 2-[5-(4-tert-Butyl-cyclohexylamino)-4′-trifluoromethyl-biphenyl-3-yl]-4-methyl-pentanoic Acid]
0.33	CC(C)CCC(Nc1cc(-c2ccc(C(F)(F)F)cc2)cc(C(CC(C)C)C(=O)O)c1)c1cc(F)cc(F)c1 (stereo not drawn) [Example 34, 2-{5-[1-(3,5-Difluoro-phenyl)-4-methyl-pentylamino]-4′-trifluoromethyl-biphenyl-3-yl}-4-methyl-pentanoic Acid]
0.51	CC(C)CC(C(=O)O)c1cc(-c2ccc(C(F)(F)F)cc2)cc(C2CCCN(Cc3ccc(C(F)(F)F)cc3)C2)c1 (stereo not drawn) [Example 36, 4-Methyl-2-{4′-trifluoromethyl-5-[1-(4-trifluoromethyl-benzyl)-piperidin-3-yl]-biphenyl-3-yl}-pentanoic Acid]
0.22	CC(C)CCC(Nc1cc(-c2ccc(C(F)(F)F)cc2)cc(C(CC(C)C)C(=O)O)c1)c1cc(C(F)(F)F)cc(C(F)(F)F)c1 (stereo not drawn) [Example 39, 2-{5-[1-(3,5-Bis-trifluoromethyl-phenyl)-4-methyl-pentylamino]-4′-trifluoromethyl-biphenyl-3-yl}-4-methyl-pentanoic Acid]
0.19	CC(C)CCN(Cc1cc(F)cc(F)c1)c1cc(-c2ccc(C(F)(F)F)cc2)cc([C@@H](CC(C)C)C(=O)O)c1 [Example 40, 2-{5-[(3,5-Difluoro-benzyl)-(3-methyl-butyl)-amino]-4′-trifluoromethyl-biphenyl-3-yl}-4-methyl-pentanoic Acid]

Compound	EC50 [µM]
(S*)4-Methyl-2-(5-{1-[4-methyl-1-(4-trifluoromethyl-phenyl)-pentyl]-piperidin-3-yl}-4′-trifluoromethyl-biphenyl-3-yl)-pentanoic Acid [Example 38]	0.45
